Peptide text beside a SMILES is read from it.
How the values were obtained:
[1] = Solubility observations; format: physicochemical; conditions: physiological pH values
[2] = system: NB2a/d1 cells; experiment: Neurite sprouting assay (RSE), NB2a/d1 cells; format: cell-based, mouse; conditions: 24 hrs in culture
Method: (§1) Two cell lines were used. The mouse neuroblastoma cell line NB2a/dl was grown to confluency in P/100 plastic plates in the presence of Delbecco's medium with 10% fetal calf serum at 36.5° C. in a 5% CO2 atmosphere. Shea, T. B. et al., Dev. Brain Res., 21:307-314 (1985). An adrenergic mouse cell line based on PC12 pheochromocytoma cells was grown on collagen-coated culture plates using 85% RPMI 1640 and 10% heat-inactivated horse serum as the growth medium. Greene, L. A. et al., Proc. Natl. Acad. Sci. USA, 73:2424-2428 (1976). Cultures were grown in P-100 plates from an initial plating of 10^5 cells/ml under sterile conditions using 10 ml of incubation medium. Experimental cultures received a given concentration of protein fragment in 1 ml of serum-free medium. Control cultures received no fragment. Equal numbers of test and control plates were incubated at 35.5° C. in a 95%/5% air/CO2 humified atmosphere, and then examined for neurite growth patterns at 18, 24 and 48 hr after the plating in a phase microscope at a magnification of 100 or 200 ×, as specified.
The test to determine the degree of sprouting was carried out blind to determine (1) the total number of cells present in a given field of observation and (2) the percent of these that have zero and one or two or more process. Twelve microscope fields, each containing 50-100 cells, were randomly selected in each plate and cells counted according to the categories described above. The data for 12 fields in each of two plates for each added protein fragment were combined to obtain an analysis of the percent sprouting (i.e. the % of cells that have one or more processes after 24 hr in culture) for each protein fragment. The ratio, % sprouting in experimental cultures/% sprouting in control cultures, is an index of the "relative sprouting effect" (RSE) of a protein fragment.

[3] = system: NB2a/dl cells; experiment: Neurite elongation assay (REE), NB2a/dl cells; format: cell-based, mouse; conditions: Conc. 1000 μM, 24 hrs in culture
Method: as §1, with “Equal numbers of test and control plates were incubated at 35.5° C. in a 95%/5% air/CO2 humified atmosphere, and then examined for neurite growth patterns at 18, 24 and 48 hr after the plating in a phase microscope at a magnification of 100 or 200 ×, as specified.” left out
(§2) In each of the twelve microscope fields, the length of nerve cell processes (minimum length: 0.5 times the cell body length) was also measured to determine the percentage of nerve elongation after 24 hr. The percentage of total cells that developed a longest process equal to its cell body length was calculated according to the formula in Table V, supra. […]

[4] = system: PC12 cells; experiment: Neurite sprouting assay (RSE), PC12 cells; format: cell-based, mouse; conditions: Conc. .07 μM, 24 hrs in culture
Method: as §1, with “Equal numbers of test and control plates were incubated at 35.5° C. in a 95%/5% air/CO2 humified atmosphere, and then examined for neurite growth patterns at 18, 24 and 48 hr after the plating in a phase microscope at a magnification of 100 or 200 ×, as specified.” left out
The test to determine the degree of sprouting was carried out blind to determine (1) the total number of cells present in a given field of observation and (2) the percent of these that have zero and one or two or more process. Twelve microscope fields, each containing 50-100 cells, were randomly selected in each plate and cells counted according to the categories described above. […]

[5] = system: PC12 cells; experiment: Neurite elongation assay (REE), PC12 cells; format: cell-based, mouse
Method: as §1, with “Equal numbers of test and control plates were incubated at 35.5° C. in a 95%/5% air/CO2 humified atmosphere, and then examined for neurite growth patterns at 18, 24 and 48 hr after the plating in a phase microscope at a magnification of 100 or 200 ×, as specified.” left out
as §2

CC(C)C[C@H](NC(=O)[C@@H](NC(=O)[C@H](CCC(=O)O)NC(=O)[C@H](CCCCN)NC(=O)[C@@H](N)CCCCN)[C@@H](C)O)C(=O)N[C@@H](CCC(N)=O)C(=O)N[C@@H](Cc1ccccc1)C(=O)N[C@@H](CCCNC(=N)N)C(=O)O [compound 8933, Lys Lys Glu Thr Leu Gln Phe Arg] (H-KKETLQFR-OH)
solubility in saline [1]: highly soluble

CCCC(=O)Nc1ncnc2c1ncn2[C@@H]1O[C@@H]2COP(=O)(O)O[C@H]2[C@H]1OC(=O)CCC [dibutyryl cyclic AMP, reference compound]
RSE (relative sprouting effect) ([2]; Conc. 1000 (μm)): 1.7
REE (neurite elongation) [3]: 2.58

Nerve growth factor
RSE (relative sprouting effect) ([2]; Conc. 0.03 (μm)): 1.76 ± .034
RSE (relative sprouting effect) ([2]; Conc. .07 (μm)): 1.76 ± .07
RSE (relative sprouting effect) [4]: 2.9
REE (neurite elongation) ([5]; Conc. .03 μM, 24 hrs in culture): 3.30
effect on neurite elongation, result in words ([5]; Table IV): most significant effects
